Values joined by “and” are separate entries in the source; they are usually repeats but may differ in a detail not shown here. Equal entries are not always repeated.

For assay [1], the system named is MDAY-D2 tumor. The experiment in a line: BMOV loaded microspheres on tumor growth (Example 19). The class given is in vivo, mice. As to conditions: BMOV solution. As to the method:
The effect of slow releasing microspheres loaded with 20% BNOV on tumor growth in mice was investigated as follows.
On day 6 the mice were divided into 6 groups as follows: group 1, empty control; group 3, tumor control; group 3, […]; group 4, injected IP with 20 mg palla beads containing 5 mg of BMOV; group 5, injected IP with 10 mg of BMOV beads on day 6 and day 9 respectively and; group 6, injected intramuscularly with 10 mg of BMOV beads on day 6 and day 9. On day 16, the mice were sacrificed and tumors were dissected.

The test system of assay [2] is HTB14 cells. Description: viability of HTB14 cells. The class given is cell-based, human. The note with it: 0-50 μM, 48 hours. On the procedure:
Fos and jun activity are also required for cellular proliferation in many tumor cell lines. Accordingly, the effect of orthovanadate on adherent cells and cell suspensions were examined. MDAY-D2 (a mouse lymphoid cell line grown in suspension) and HTB14 cells (an adherent human primary astrocytoma cell line) were incubated in media containing 0-50 μM orthovanadate for 48 hours. The cells were harvested and the number of viable cells determined.

Assay [3] deals with LS180. The experiment in a line: MTT cytotoxicity assay, LS180. The note with it: LS180, 72 hours. In kind it is cell-based, human. On the procedure: The relative cytotoxicity of various compounds on tumor cell lines was investigated as follows. Cytotoxicity was measured by the MTT microculture tetrazolium colorimetric assay for all cell lines. The relative cytotoxicity of Na3 VO4 and VOSO4 was investigated using the following tumor cell lines: P388(WT) murine leukemia, P388 (ADR) murine leukemia, Lewis murine lung, MCF7 (WT) human breast, […] human lung, K562 human erythroleukemia, A431 human epidermal, LS180 human colon and SK-OV-3 human ovarian. The relative cytotoxicity of doxorubicin, Na3 VO4 and VOSO4 was investigated using the following tumor cell lines: P388(WT) murine leukemia, P388 (ADR) murine leukemia, MCF7(WT) human breast and MCF7 (ADR) human breast. The relative cytotoxicity of BMOV, BEOV and naglivan was investigated using the following tumor cell lines: P388(WT) murine leukemia, P388 (ADR) murine leukemia, Lewis murine lung, H460 human lung, K562 human erythroleukemia, and SK-OV-3 human ovarian.
The cells were plated (number of cells/well was different from cell line to cell depending on the dividing rate) in a 96-well microculture plate 24 hours prior to the delivery of the vanadium compounds. Serial concentrations of solutions of the test compounds (0.05-100 μM) were delivered to the corresponding wells. […] The absorbance of each well was read with a Titertek Multiskan (310C) spectrophotometer at 570 nm. […]
Background: Tetrazolium dyes change colour on reduction, which living cells bring about.

As for `Cc1occc(=O)c1[O-].Cc1occc(=O)c1[O-].[O]=[V+2]` [BMOV, bis(methylmaltolato) oxovanadium (IV)], the “Tumour weight, Average” value in assay [1] amounted to 0.15. In assay [1] (individual mice), the Tumour weight was 0.4 and 0.12 and 0.07 and 0.04.

As for `[Na+].[Na+].[Na+].[O]=[V]([O-])([O-])[O-]` [orthovanadate, sodium orthovanadate], the “toxicity to HTB14 cells” value in assay [2] is recorded as “toxic”. In assay [3], the concentration for half-maximal inhibition (IC50) (in general, the midpoint of a concentration-inhibition curve) came out at 16.4 µM.

These data come from patent US5871779A, “Treatment of arthropathies with vanadate compounds or analogues thereof” (Mount Sinai Hospital Corporation, priority 1996, dated 1999).
